Measured values reported in US10238758B2, “Radiolabeled alpha-melanocyte stimulating hormone hybrid peptide for melanoma targeting” (STC.UNM, priority 2011, dated 2019).
“Also recorded” adds a separate entry of the source. Each block holds one compound with its values, some of them ahead of it. Positions of bridges follow the written chain, without caps; N, C: chain ends. Non-standard residues stand in square brackets, D forms with d. Residues, ends and D or L forms follow the SMILES beside them.

Assays:
MC1 receptor [1] = biological target: T1, MC1 receptor (Homo sapiens, UniProt Q01726); conditions: M21 melanoma cells, cited from earlier work
T1 construct: Both MC1 and αvβ3 integrin receptors are over-expressed in M21 melanoma cells [23]; endogenous in cells; host or cells: M21 human melanoma cells

αvβ3 integrin receptor = biological target: T2, αvβ3 integrin receptor (Homo sapiens, UniProt P05106+P06756); conditions: M21 melanoma cells, vs RGD-Lys-(Arg11)CCMSH; cited from earlier work
T2 construct: Both MC1 and αvβ3 integrin receptors are over-expressed in M21 melanoma cells [23]; endogenous in cells; host or cells: M21 human melanoma cells

MC1 receptor [2] = biological target: T3, MC1 receptor (Mus musculus, UniProt Q01727); assay: MC1 receptor competitive binding with 125I-(Tyr2)-NDP-MSH in B16/F1 melanoma cells; design: species or system murine
T3 construct: host or cells: B16/F1 murine melanoma cells
Text: Amino acid and resin were purchased from Advanced ChemTech Inc. (Louisville, Ky.) and Novabiochem (San Diego, Calif.). ^125I-Tyr^2-[Nle^4, DPhe^7]-α-MSH {^125I-(Tyr^2)-NDP-MSH} was obtained from PerkinElmer, Inc. (Shelton, Conn.) for MC1 receptor binding assay. ^99mTcO4^− was purchased from Cardinal Health (Albuquerque, N. Mex.) for peptide radiolabeling. All other chemicals used in this study were purchased from Thermo Fisher Scientific (Waltham, Mass.) and used without further purification. B16/F1 murine melanoma cells were obtained from American Type Culture Collection (Manassas, Va.).
The RAD-Lys-(Arg^11)CCMSH was synthesized according to our published procedure, purified by reverse phase-high performance liquid chromatography (RP-HPLC) and characterized by LC-mass spectroscopy. The IC50 value of RAD-Lys-(Arg^11)CCMSH for the MC1 receptor was determined in B16/F1 melanoma cells. Briefly, the B16/F1 cells were harvested and seeded into a 24-well cell culture plate (0.2×10^6 cells/well) and incubated at 37° C. overnight. […] The radioactivities associated with cells were measured in a Wallac 1480 automated gamma counter (PerkinElmer, NJ). The IC50 value of RAD-Lys-(Arg^11)CCMSH was calculated using the Prism software (GraphPad Software, La Jolla, Calif.).

B16/F1 melanoma cells = assay: Cellular internalization and efflux in B16/F1 melanoma cells; format: cell-based, murine; conditions: for activity internalized: 25° C.
Method: RAD-Lys-(Arg^11)CCMSH was radiolabeled with ^99mTc using the method described previously. The radiolabeled peptide was purified to single species by Waters RP-HPLC (Milford, Mass.) on a Grace Vydac C-18 reverse phase analytic column (Deerfield, Ill.) using a 20 min gradient of 16-26% acetonitrile in 20 mM HCl aqueous solution at a flow rate of 1 mL/min. Cellular internalization and efflux of ^99mTc-RAD-Lys-(Arg^11)CCMSH were evaluated in B16/F1 melanoma cells. Briefly, the B16/F1 cells in 24-well cell culture plates were incubated at 25° C. for 20, 40, 60, 90 and 120 min (n=4) in the presence of approximately 200,000 cpm of HPLC purified ^99mTc-RAD-Lys-(Arg^11)CCMSH. After incubation, the reaction medium was aspirated and the cells were rinsed twice with 0.5 mL of ice-cold pH 7.4, 0.2% BSA/0.01 M PBS. Cellular internalization of ^99mTc-RAD-Lys-(Arg^11) CCMSH was assessed by washing the cells with acidic buffer [40 mM sodium acetate (pH 4.5) containing 0.9% NaCl and 0.2% BSA] to remove the membrane-bound radioactivity. The remaining internalized radioactivity was obtained by lysing the cells with 0.5 mL of 1 N NaOH for 5 min. Membrane-bound and internalized ^99mTc activities were counted in a gamma counter. Cellular efflux of ^99mTc-RAD-Lys-(Arg^11)CCMSH was determined by incubating the B16/F1 cells with ^99mTc-RAD-Lys-(Arg^11)CCMSH for 2 h at 25° C., removing non-specific-bound radioactivity with 2×0.5 mL of ice-cold pH 7.4, 0.2% BSA/0.01 M PBS rinse, and monitoring radioactivity released into cell culture medium. At time points of 20, 40, 60, 90 and 120 min, the radioactivities in medium, on cell surface and in cells were separately collected and counted in a gamma counter.

[3] = test system: B16/F1 melanoma-bearing C57 mice; assay: Biodistribution in B16/F1 melanoma-bearing C57 mice; format: in vivo
Method: All the animal studies were conducted in compliance with Institutional Animal Care and Use Committee approval. The biodistribution of ^99mTc-RAD-Lys-(Arg^11)CCMSH was determined in B16/F1 melanoma-bearing C57 mice (Harlan, Indianapolis, Ind.). C57 mice were subcutaneously inoculated on the right flank with 1×10^6 B16/F1 cells. Tumor weights reached approximately 0.2 g at 10 days post cell inoculation. Each melanoma-bearing mouse was injected with 0.037 MBq of ^99mTc-RAD-Lys-(Arg^11)CCMSH via the tail vein. Groups of 5 mice were sacrificed at 0.5, 2, 4 and 24 h post-injection, and tumors and organs of interest were harvested, weighed and counted. Blood values were taken as 6.5% of the whole-body weight.
The specificity of tumor uptake was determined at 2 h post-injection by co-injecting ^99mTc-RAD-Lys-(Arg^11)CCMSH with 10 μg (6.1 nmol) of unlabeled NDP-MSH. L-lysine co-injection is effective in decreasing the renal uptake of radiolabeled α-MSH peptides. To determine the effect of L-lysine co-injection on the renal uptake of ^99mTc-RAD-Lys-(Arg^11)CCMSH, a group of 5 mice were injected with a mixture of 0.037 MBq of ^99mTc-RAD-Lys-(Arg^11)CCMSH and 12 mg of L-lysine. The mice were sacrificed at 2 h post-injection, and tumors and organs of interest were harvested, weighed and counted in a gamma counter.
Statistical analysis was performed using the Student's t-test for unpaired data to determine the significance of differences in tumor and kidney uptake between the groups in the biodistribution studies with/without peptide blockade or with/without L-lysine co-injection. Differences at the 95% confidence level (p<0.05) were considered significant.

[4] = test system: B16/F1 melanoma-bearing C57 mouse; assay: SPECT/CT melanoma imaging in a B16/F1 melanoma-bearing C57 mouse; format: in vivo; conditions: 2 h post-injection
Method: (§1) Approximately 6.7 MBq of ^99mTc-RAD-Lys-(Arg^11)CCMSH was injected in a B16/F1 melanoma-bearing C57 mouse for imaging and urine analysis. The mouse was euthanized at 2 h post-injection for small animal SPECT/CT (Nano-SPECT/CT®, Bioscan) imaging, as well as to collect urine for analyzing the metabolites. The 9-min CT imaging was immediately followed by the whole-body SPECT scan. The SPECT scans of 24 projections were acquired. Reconstructed SPECT and CT data were visualized and co-registered using InVivoScope (Bioscan, Washington D.C.). The collected urine sample was centrifuged at 16,000 g for 5 min before the HPLC analysis. Thereafter, aliquots of the urine were injected into the HPLC. A 20-minute gradient of 16-26% acetonitrile/20 mM HCl with a flow rate of 1 mL/min was used for urine analysis.

[5] = Urinary metabolites by HPLC in a B16/F1 melanoma-bearing C57 mouse; format: in vivo; conditions: 2 h post-injection
Method: as §1

T1 sequence (Q01726 whole entry): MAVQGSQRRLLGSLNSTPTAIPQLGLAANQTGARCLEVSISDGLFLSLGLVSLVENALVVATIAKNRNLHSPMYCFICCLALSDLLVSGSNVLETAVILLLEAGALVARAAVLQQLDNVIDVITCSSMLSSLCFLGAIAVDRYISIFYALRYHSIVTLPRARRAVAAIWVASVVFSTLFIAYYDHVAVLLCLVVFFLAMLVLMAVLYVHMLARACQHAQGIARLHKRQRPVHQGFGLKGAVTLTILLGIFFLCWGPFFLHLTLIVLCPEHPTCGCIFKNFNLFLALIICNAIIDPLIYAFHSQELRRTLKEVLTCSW
T2 sequence (P06756 31-889 limits assumed): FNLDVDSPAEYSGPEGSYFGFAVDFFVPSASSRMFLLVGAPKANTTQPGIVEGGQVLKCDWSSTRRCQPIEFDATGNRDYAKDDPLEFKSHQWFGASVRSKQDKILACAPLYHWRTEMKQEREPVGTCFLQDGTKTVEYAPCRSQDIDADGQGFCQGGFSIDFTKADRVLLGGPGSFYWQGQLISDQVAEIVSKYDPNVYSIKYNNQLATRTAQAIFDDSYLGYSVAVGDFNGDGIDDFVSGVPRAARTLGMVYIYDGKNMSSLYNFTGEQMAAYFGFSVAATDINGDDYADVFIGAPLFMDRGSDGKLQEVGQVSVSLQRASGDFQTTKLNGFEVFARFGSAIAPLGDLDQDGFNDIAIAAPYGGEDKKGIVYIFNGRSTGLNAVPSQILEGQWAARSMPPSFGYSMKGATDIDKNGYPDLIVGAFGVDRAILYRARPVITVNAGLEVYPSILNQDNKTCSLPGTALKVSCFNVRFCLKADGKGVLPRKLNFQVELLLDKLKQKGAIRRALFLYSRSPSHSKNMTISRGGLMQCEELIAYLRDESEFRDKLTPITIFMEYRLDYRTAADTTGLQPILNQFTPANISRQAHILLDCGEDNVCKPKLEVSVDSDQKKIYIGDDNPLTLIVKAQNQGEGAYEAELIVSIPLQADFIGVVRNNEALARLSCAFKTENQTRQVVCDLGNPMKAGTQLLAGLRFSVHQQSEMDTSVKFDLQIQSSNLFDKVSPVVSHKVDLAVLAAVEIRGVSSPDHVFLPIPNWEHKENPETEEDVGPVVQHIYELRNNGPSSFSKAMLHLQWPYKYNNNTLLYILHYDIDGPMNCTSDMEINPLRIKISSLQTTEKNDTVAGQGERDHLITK
T2 sequence (P06756 891-1048 limits assumed): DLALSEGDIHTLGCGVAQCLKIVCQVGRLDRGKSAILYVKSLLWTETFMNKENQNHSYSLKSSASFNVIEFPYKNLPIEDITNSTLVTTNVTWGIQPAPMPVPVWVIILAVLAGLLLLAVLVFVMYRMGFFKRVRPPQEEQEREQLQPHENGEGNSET
T2 sequence (P05106 27-788): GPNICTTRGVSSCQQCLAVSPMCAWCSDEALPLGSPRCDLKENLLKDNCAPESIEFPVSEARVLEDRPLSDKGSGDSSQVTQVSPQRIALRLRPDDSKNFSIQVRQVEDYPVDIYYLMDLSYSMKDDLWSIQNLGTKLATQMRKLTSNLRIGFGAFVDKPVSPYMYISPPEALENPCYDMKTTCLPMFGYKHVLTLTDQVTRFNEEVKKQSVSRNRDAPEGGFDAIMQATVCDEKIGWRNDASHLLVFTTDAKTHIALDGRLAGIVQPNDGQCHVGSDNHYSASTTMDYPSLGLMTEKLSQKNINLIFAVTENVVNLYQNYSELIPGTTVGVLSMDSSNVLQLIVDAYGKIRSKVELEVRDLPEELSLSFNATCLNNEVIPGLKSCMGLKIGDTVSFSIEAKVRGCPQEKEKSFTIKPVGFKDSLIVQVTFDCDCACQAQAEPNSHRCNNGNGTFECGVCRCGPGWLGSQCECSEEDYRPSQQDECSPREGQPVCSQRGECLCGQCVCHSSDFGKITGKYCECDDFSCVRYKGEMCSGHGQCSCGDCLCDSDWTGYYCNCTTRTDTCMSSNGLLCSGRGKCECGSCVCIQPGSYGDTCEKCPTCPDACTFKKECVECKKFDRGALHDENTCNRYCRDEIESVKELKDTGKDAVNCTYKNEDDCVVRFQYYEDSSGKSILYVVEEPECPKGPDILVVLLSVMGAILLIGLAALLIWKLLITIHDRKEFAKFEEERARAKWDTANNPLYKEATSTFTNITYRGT
T3 sequence (Q01727 whole entry): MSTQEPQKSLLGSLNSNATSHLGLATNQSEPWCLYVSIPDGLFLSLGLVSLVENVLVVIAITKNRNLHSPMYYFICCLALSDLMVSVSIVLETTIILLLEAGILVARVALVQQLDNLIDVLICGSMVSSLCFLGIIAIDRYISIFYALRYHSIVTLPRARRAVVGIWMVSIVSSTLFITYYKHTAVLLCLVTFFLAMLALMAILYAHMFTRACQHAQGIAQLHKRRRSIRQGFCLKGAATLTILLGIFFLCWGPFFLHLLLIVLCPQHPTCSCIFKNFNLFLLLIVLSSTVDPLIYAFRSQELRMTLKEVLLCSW

Compound: CC(C)[C@H](NC(=O)[C@@H]1CCCN1C(=O)[C@H](CCCNC(=N)N)NC(=O)[C@H](CS)NC(=O)[C@H](Cc1c[nH]c2ccccc12)NC(=O)[C@H](CCCNC(=N)N)NC(=O)[C@@H](Cc1ccccc1)NC(=O)[C@H](Cc1c[nH]cn1)NC(=O)[C@H](CCC(=O)O)NC(=O)[C@H](CS)NC(=O)[C@H](CS)NC(=O)[C@H](CCCCN)NC(=O)[C@@H]1CC(=O)N[C@@H](CCCNC(=N)N)C(=O)N[C@@H](C)C(=O)N[C@@H](CC(=O)O)C(=O)N[C@H](Cc2ccc(O)cc2)C(=O)N1)C(N)=O [RAD-Lys-(Arg^11)CCMSH] (RAD[dY]DKCCEH[dF]RWCRPV-NH2; lactam N-5 (inferred))
increase of MC1 receptor binding affinity by switch from RGD to RAD (MC1 receptor [1]; vs RGD-Lys-(Arg11)CCMSH): 6.7 fold | decrease of αvβ3 integrin receptor binding affinity by switch from RGD to RAD (αvβ3 integrin receptor): 248 fold

IC50 (MC1 receptor [2]): 0.26 nM | tumor uptake with NDP-MSH co-injection as % of tumor uptake without ([3]; 10 μg (6.1 nmol) non-radiolabeled NDP-MSH co-injection, 2 h post-injection, p<0.01): 7.8% | liver uptake as % of liver uptake of 99mTc-RGD-Lys-(Arg11)CCMSH ([3]; 0.5 h post-injection): 66.2% | renal uptake relative to 99mTc-RGD-Lys-(Arg11)CCMSH ([3]; 0.5 h post-injection): 1.84 times | tumor uptake relative to 99mTc-RGD-Lys-(Arg11)CCMSH ([3]; 0.5 h post-injection): 1.51 times | effect of L-lysine co-injection on tumor uptake ([3]; 2 h post-injection): without affecting the tumor uptake | liver uptake as % of liver uptake of 99mTc-RGD-Lys-(Arg11)CCMSH ([3]; 2 h post-injection): 61.9% | renal uptake relative to 99mTc-RGD-Lys-(Arg11)CCMSH ([3]; 2 h post-injection): 1.39 times | tumor uptake relative to 99mTc-RGD-Lys-(Arg11)CCMSH ([3]; 2 h post-injection): 1.34 times | renal uptake relative to 99mTc-RGD-Lys-(Arg11)CCMSH ([3]; 4 h post-injection): 1.42 times | tumor uptake relative to 99mTc-RGD-Lys-(Arg11)CCMSH ([3]; 4 h post-injection): 1.43 times | liver uptake as % of liver uptake of 99mTc-RGD-Lys-(Arg11)CCMSH ([3]; 24 h post-injection): 72.3% | decrease of renal uptake by L-lysine co-injection ([3]; L-lysine co-injection): 46% | effect of peptide blockade co-injection on renal uptake ([3]; NDP-MSH co-injection): did not reduce the renal uptake | remained intact in urine [5]: Approximately 82% | transformed to a more lipophilic metabolite ([5]; urine): 18%
Compound: CC(C)[C@H](NC(=O)[C@@H]1CCCN1C(=O)[C@H](CCCNC(=N)N)NC(=O)[C@H](CS)NC(=O)[C@H](Cc1c[nH]c2ccccc12)NC(=O)[C@H](CCCNC(=N)N)NC(=O)[C@@H](Cc1ccccc1)NC(=O)[C@H](Cc1c[nH]cn1)NC(=O)[C@H](CCC(=O)O)NC(=O)[C@H](CS)NC(=O)[C@H](CS)NC(=O)[C@H](CCCCN)NC(=O)[C@@H]1CC(=O)N[C@@H](CCCNC(=N)N)C(=O)N[C@@H](C)C(=O)N[C@@H](CC(=O)O)C(=O)N[C@H](Cc2ccc(O)cc2)C(=O)N1)C(N)=O [^99mTc-RAD-Lys-(Arg^11)CCMSH, metal not drawn] (RAD[dY]DKCCEH[dF]RWCRPV-NH2; lactam N-5)
activity internalized (B16/F1 melanoma cells; 20 min post incubation): 59.20±5.10% | cellular internalization and retention, in words (B16/F1 melanoma cells; B16/F1 melanoma cells): rapid cellular internalization and extended cellular retention | activity internalized (B16/F1 melanoma cells; after 2 h incubation): 78.24±1.13% | visualization of melanoma lesions by SPECT/CT [4]: visualized clearly; also recorded: clearly visualized

Compound: RGD-Lys-(Arg^11)CCMSH [cyclic RGD {Arg-Gly-Asp-DTyr-Asp} motif conjugated to [Cys3,4,10, D-Phe7, Arg11]α-MSH3-13 peptide via a lysine linker, reference compound]
IC50 (MC1 receptor [1]; from ref. 23, read-out: MC1 receptor binding affinity): 2 nM
